PubChem BioAssay (NCI)
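Values below derive from 48-hour exposures of cells grown in 96-well plates, with endpoints linearly interpolated between the two concentrations bracketing the appropriate inhibition level. The concentration for 50% growth inhibition is given as GI50. TGI marks complete inhibition of growth.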

Key:
Test in all cases: inhibition of tumour cell growth, NCI panel, 48 h
EKVX NSCLC = test system: EKVX NSCLC
UACC-62 melanoma = test system: UACC-62 melanoma
SW-620 colon = test system: SW-620 colon
KM12 colon = test system: KM12 colon
HL-60(TB) leukemia = test system: HL-60(TB) leukemia
SF-295 CNS = test system: SF-295 CNS
OVCAR-5 ovarian = test system: OVCAR-5 ovarian
SK-MEL-28 melanoma = test system: SK-MEL-28 melanoma
A549 NSCLC = test system: A549 NSCLC
ACHN renal = test system: ACHN renal
T-47D breast = test system: T-47D breast
BT-549 breast = test system: BT-549 breast
SNB-19 CNS = test system: SNB-19 CNS
HS 578T breast = test system: HS 578T breast
NCI-H23 lung = test system: NCI-H23 lung
HOP-92 NSCLC = test system: HOP-92 NSCLC
UACC-257 melanoma = test system: UACC-257 melanoma
DU-145 prostate = test system: DU-145 prostate
SF-268 CNS = test system: SF-268 CNS
IGROV1 ovarian = test system: IGROV1 ovarian
MDA-MB-231 breast = test system: MDA-MB-231 breast
786-0 renal = test system: 786-0 renal
MCF7 breast = test system: MCF7 breast
SK-MEL-5 melanoma = test system: SK-MEL-5 melanoma
U251 CNS = test system: U251 CNS
K-562 leukemia = test system: K-562 leukemia
MDA-MB-435 = test system: MDA-MB-435
NCI/ADR-RES ovarian = test system: NCI/ADR-RES ovarian
M14 melanoma = test system: M14 melanoma
HCT-116 colon = test system: HCT-116 colon
HT29 colon = test system: HT29 colon
TK-10 renal = test system: TK-10 renal
RPMI-8226 leukemia = test system: RPMI-8226 leukemia
COLO 205 colon = test system: COLO 205 colon
HCC-2998 colon = test system: HCC-2998 colon
RXF 393 renal = test system: RXF 393 renal
MOLT-4 leukemia = test system: MOLT-4 leukemia
HCT-15 colon = test system: HCT-15 colon
SK-MEL-2 melanoma = test system: SK-MEL-2 melanoma
OVCAR-4 ovarian = test system: OVCAR-4 ovarian
SNB-75 CNS = test system: SNB-75 CNS
UO-31 renal = test system: UO-31 renal
NCI-H460 lung = test system: NCI-H460 lung
SF-539 CNS = test system: SF-539 CNS
OVCAR-8 ovarian = test system: OVCAR-8 ovarian
OVCAR-3 ovarian = test system: OVCAR-3 ovarian
CCRF-CEM leukemia = test system: CCRF-CEM leukemia
SK-OV-3 ovarian = test system: SK-OV-3 ovarian
SN12C renal = test system: SN12C renal
A498 renal = test system: A498 renal
PC-3 prostate = test system: PC-3 prostate
SR leukemia = test system: SR leukemia
CAKI-1 renal = test system: CAKI-1 renal
NCI-H522 lung = test system: NCI-H522 lung
HOP-62 NSCLC = test system: HOP-62 NSCLC
NCI-H226 lung = test system: NCI-H226 lung
LOX IMVI melanoma = test system: LOX IMVI melanoma

COc1ccc(-c2[nH]c(=O)n(C3OC(CO)C(O)C(O)C3O)c(=O)c2C#N)cc1 (centres undefined)
TGI (EKVX NSCLC): > 100 µM
TGI (UACC-62 melanoma): > 100 µM
TGI (SW-620 colon): > 100 µM
TGI (KM12 colon): > 100 µM
TGI (HL-60(TB) leukemia): > 100 µM
TGI (SF-295 CNS): > 100 µM
TGI (OVCAR-5 ovarian): > 100 µM
TGI (SK-MEL-28 melanoma): > 100 µM
TGI (A549 NSCLC): > 100 µM
TGI (ACHN renal): > 100 µM
TGI (T-47D breast): > 100 µM
TGI (BT-549 breast): > 100 µM
TGI (SNB-19 CNS): > 100 µM
TGI (HS 578T breast): > 100 µM
TGI (NCI-H23 lung): > 100 µM
TGI (HOP-92 NSCLC): > 100 µM
TGI (UACC-257 melanoma): > 100 µM
TGI (DU-145 prostate): > 100 µM
TGI (SF-268 CNS): > 100 µM
TGI (IGROV1 ovarian): > 100 µM
TGI (MDA-MB-231 breast): > 100 µM
TGI (786-0 renal): > 100 µM
TGI (MCF7 breast): > 100 µM
TGI (SK-MEL-5 melanoma): > 100 µM
TGI (U251 CNS): > 100 µM
TGI (K-562 leukemia): > 100 µM
TGI (MDA-MB-435): > 100 µM
TGI (NCI/ADR-RES ovarian): > 100 µM
TGI (M14 melanoma): > 100 µM
TGI (HCT-116 colon): > 100 µM
TGI (HT29 colon): > 100 µM
TGI (TK-10 renal): > 100 µM
TGI (RPMI-8226 leukemia): > 100 µM
TGI (COLO 205 colon): > 100 µM
TGI (HCC-2998 colon): > 100 µM
TGI (RXF 393 renal): > 100 µM
TGI (MOLT-4 leukemia): > 100 µM
TGI (HCT-15 colon): > 100 µM
TGI (SK-MEL-2 melanoma): > 100 µM
TGI (OVCAR-4 ovarian): > 100 µM
TGI (SNB-75 CNS): > 100 µM
TGI (UO-31 renal): > 100 µM
TGI (NCI-H460 lung): > 100 µM
TGI (SF-539 CNS): > 100 µM
TGI (OVCAR-8 ovarian): > 100 µM
TGI (OVCAR-3 ovarian): > 100 µM
TGI (CCRF-CEM leukemia): > 100 µM
TGI (SK-OV-3 ovarian): > 100 µM
TGI (SN12C renal): > 100 µM
TGI (A498 renal): > 100 µM
TGI (PC-3 prostate): > 100 µM
TGI (SR leukemia): > 100 µM
TGI (CAKI-1 renal): > 100 µM
TGI (NCI-H522 lung): > 100 µM
TGI (HOP-62 NSCLC): > 100 µM
TGI (NCI-H226 lung): > 100 µM

CC(=O)Nc1ccc(-c2csc(Nc3ccc(-c4csc(-c5ccccc5)n4)cc3)n2)cc1
GI50 (EKVX NSCLC): 12.9 µM
TGI (EKVX NSCLC): > 50 µM
GI50 (UACC-62 melanoma): 5.98 µM
TGI (UACC-62 melanoma): > 50 µM
GI50 (SW-620 colon): > 50 µM
TGI (SW-620 colon): > 50 µM
GI50 (KM12 colon): 25.5 µM
TGI (KM12 colon): > 50 µM
GI50 (HL-60(TB) leukemia): 37.4 µM
TGI (HL-60(TB) leukemia): > 50 µM
GI50 (SF-295 CNS): 36.3 µM
TGI (SF-295 CNS): > 50 µM
GI50 (OVCAR-5 ovarian): 12.6 µM
TGI (OVCAR-5 ovarian): 42.6 µM
GI50 (SK-MEL-28 melanoma): 7.14 µM
TGI (SK-MEL-28 melanoma): 42.9 µM
GI50 (A549 NSCLC): 12.6 µM
TGI (A549 NSCLC): > 50 µM
GI50 (ACHN renal): 7.53 µM
TGI (ACHN renal): 27.9 µM
GI50 (T-47D breast): 26.5 µM
TGI (T-47D breast): > 50 µM
GI50 (BT-549 breast): 11.4 µM
TGI (BT-549 breast): > 50 µM
GI50 (SNB-19 CNS): 16.5 µM
TGI (SNB-19 CNS): > 50 µM
GI50 (HS 578T breast): 40.9 µM
TGI (HS 578T breast): > 50 µM
GI50 (NCI-H23 lung): 3.73 µM
TGI (NCI-H23 lung): 20.1 µM
GI50 (HOP-92 NSCLC): > 50 µM
TGI (HOP-92 NSCLC): > 50 µM
GI50 (UACC-257 melanoma): > 50 µM
TGI (UACC-257 melanoma): > 50 µM
GI50 (LOX IMVI melanoma): 31 µM
TGI (LOX IMVI melanoma): > 50 µM
GI50 (DU-145 prostate): 36.1 µM
TGI (DU-145 prostate): > 50 µM
GI50 (SF-268 CNS): 19.9 µM
TGI (SF-268 CNS): > 50 µM
GI50 (IGROV1 ovarian): 10.9 µM
TGI (IGROV1 ovarian): 40.2 µM
GI50 (MDA-MB-231 breast): 6.94 µM
TGI (MDA-MB-231 breast): 27.8 µM
GI50 (786-0 renal): 32.2 µM
TGI (786-0 renal): > 50 µM
GI50 (MCF7 breast): 16.3 µM
TGI (MCF7 breast): > 50 µM
GI50 (SK-MEL-5 melanoma): 11.1 µM
TGI (SK-MEL-5 melanoma): 41.2 µM
GI50 (U251 CNS): 7.16 µM
TGI (U251 CNS): 21.3 µM
GI50 (K-562 leukemia): 5.52 µM
TGI (K-562 leukemia): > 50 µM
GI50 (MDA-MB-435): 19.1 µM
TGI (MDA-MB-435): > 50 µM
GI50 (NCI/ADR-RES ovarian): 11.1 µM
TGI (NCI/ADR-RES ovarian): 37.2 µM
GI50 (M14 melanoma): > 50 µM
TGI (M14 melanoma): > 50 µM
GI50 (HCT-116 colon): > 50 µM
TGI (HCT-116 colon): > 50 µM
GI50 (TK-10 renal): 16.4 µM
TGI (TK-10 renal): > 50 µM
GI50 (RPMI-8226 leukemia): > 50 µM
TGI (RPMI-8226 leukemia): > 50 µM
GI50 (COLO 205 colon): > 50 µM
TGI (COLO 205 colon): > 50 µM
GI50 (RXF 393 renal): 13.3 µM
TGI (RXF 393 renal): > 50 µM
GI50 (HCT-15 colon): 17.4 µM
TGI (HCT-15 colon): > 50 µM
GI50 (UO-31 renal): > 50 µM
TGI (UO-31 renal): > 50 µM
GI50 (NCI-H460 lung): 7.94 µM
TGI (NCI-H460 lung): > 50 µM
GI50 (OVCAR-8 ovarian): 10.7 µM
TGI (OVCAR-8 ovarian): > 50 µM
GI50 (OVCAR-3 ovarian): > 50 µM
TGI (OVCAR-3 ovarian): > 50 µM
GI50 (CCRF-CEM leukemia): > 50 µM
TGI (CCRF-CEM leukemia): > 50 µM
GI50 (SK-OV-3 ovarian): 9.08 µM
TGI (SK-OV-3 ovarian): > 50 µM
GI50 (SN12C renal): 5.64 µM
TGI (SN12C renal): 23.9 µM
GI50 (A498 renal): 12.5 µM
TGI (A498 renal): 25.6 µM
GI50 (PC-3 prostate): 20.6 µM
TGI (PC-3 prostate): > 50 µM
GI50 (SR leukemia): 9.64 µM
TGI (SR leukemia): 45.2 µM
GI50 (CAKI-1 renal): 20.9 µM
TGI (CAKI-1 renal): > 50 µM
GI50 (NCI-H522 lung): 16.3 µM
TGI (NCI-H522 lung): 41.5 µM
GI50 (HOP-62 NSCLC): > 50 µM
TGI (HOP-62 NSCLC): > 50 µM
